In PubChem BioAssay AID256 (DTP/NCI, 2004):
Several values for one entry are separate records, joined by “and”; a condition that tells them apart may be missing. Equal entries are not always repeated. Inconclusive results and toxic doses are left out. How the source made its calls: active means survival T/C of 150% or more; inactive means T/C below 125% in these data.

Tested on: CD2F1 mice, L1210 leukemia ip, survival T/C
Test: NCI In Vivo Anticancer Drug Screen. Data for tumor model L1210 Leukemia (intraperitoneal) in CD2F1 (CDF1) mice
Settings: higher = longer survival
In short: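 Implant tumor; dose compound or vehicle; measure endpoint in both groups; report treated divided by control.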

[1] = endpoint: mean survival time, dose: 100.0 mg/kg/injection, schedule: Q01DX009 (ip), vehicle: saline with Tween-80
[2] = endpoint: mean survival time, dose: 200.0 mg/kg/injection, schedule: Q01DX009 (ip), vehicle: saline with Tween-80
[3] = endpoint: mean survival time, dose: 400.0 mg/kg/injection, schedule: Q01DX009 (ip), vehicle: saline with Tween-80
[4] = endpoint: mean survival time, dose: 100.0 mg/kg/injection, schedule: Q04DX003 (ip), vehicle: saline with Tween-80
[5] = endpoint: mean survival time, dose: 200.0 mg/kg/injection, schedule: Q04DX003 (ip), vehicle: saline with Tween-80
[6] = endpoint: mean survival time, dose: 400.0 mg/kg/injection, schedule: Q04DX003 (ip), vehicle: saline with Tween-80

Measured: T/C

C=C(Br)CNC(=O)C(C)C
inactive: endpoint: mean survival time, dose: 5.0 mg/kg/injection, schedule: Q01DX009 (ip), vehicle: saline with Tween-80 98 % of control | endpoint: mean survival time, dose: 10.0 mg/kg/injection, schedule: Q01DX009 (ip), vehicle: saline with Tween-80 100 % of control | endpoint: mean survival time, dose: 20.0 mg/kg/injection, schedule: Q01DX009 (ip), vehicle: saline with Tween-80 100 % of control

C=C(C)CSc1ccccc1
inactive: endpoint: mean survival time, dose: 5.0 mg/kg/injection, schedule: Q01DX001 (ip), vehicle: saline 97 % of control | endpoint: mean survival time, dose: 10.0 mg/kg/injection, schedule: Q01DX001 (ip), vehicle: saline 97 % of control | endpoint: mean survival time, dose: 20.0 mg/kg/injection, schedule: Q01DX001 (ip), vehicle: saline 97 % of control | endpoint: mean survival time, dose: 40.0 mg/kg/injection, schedule: Q01DX001 (ip), vehicle: saline 97 % of control | endpoint: mean survival time, dose: 80.0 mg/kg/injection, schedule: Q01DX001 (ip), vehicle: saline 97 % of control | endpoint: mean survival time, dose: 100.0 mg/kg/injection, schedule: Q01DX001 (ip), vehicle: saline 95 % of control | endpoint: mean survival time, dose: 200.0 mg/kg/injection, schedule: Q01DX001 (ip), vehicle: saline 103 % of control

COc1cccc2c1C(=O)c1c(O)c3c(c(O)c1C2=O)CC(O)(/C(C)=N/NC(=O)CCCC(=O)N/N=C(\C)C1(O)Cc2c(O)c4c(c(O)c2C(OC2CC(N)C(O)C(C)O2)C1)C(=O)c1c(OC)cccc1C4=O)CC3OC1CC(N)C(O)C(C)O1 (stereo not drawn)
inactive: endpoint: mean survival time, dose: 0.2 mg/kg/injection, schedule: Q01DX009 (ip), vehicle: water 101 % of control | endpoint: mean survival time, dose: 0.39 mg/kg/injection, schedule: Q01DX009 (ip), vehicle: water 98 % of control | endpoint: mean survival time, dose: 0.78 mg/kg/injection, schedule: Q01DX009 (ip), vehicle: water 109 % of control | endpoint: mean survival time, dose: 1.56 mg/kg/injection, schedule: Q01DX009 (ip), vehicle: water 104 % of control | endpoint: mean survival time, dose: 3.13 mg/kg/injection, schedule: Q01DX009 (ip), vehicle: water 114 % of control

CCCCCCCCCC(=O)CCCCCCC
inactive: endpoint: mean survival time, dose: 100.0 mg/kg/injection, schedule: Q04DX003 (ip), vehicle: other 105 % of control | endpoint: mean survival time, dose: 200.0 mg/kg/injection, schedule: Q04DX003 (ip), vehicle: other 92 % of control | endpoint: mean survival time, dose: 400.0 mg/kg/injection, schedule: Q04DX003 (ip), vehicle: other 107 % of control

Nc1nc(N)c2nc(CN(CCc3ccccc3)c3ccc(C(=O)NC(CCC(=O)O)C(=O)O)cc3)cnc2n1 (stereo not drawn)
inactive: endpoint: mean survival time, dose: 20.0 mg/kg/injection, schedule: Q01DX009 (ip), vehicle: sodium bicarbonate 100 % of control | endpoint: mean survival time, dose: 40.0 mg/kg/injection, schedule: Q01DX009 (ip), vehicle: sodium bicarbonate 105 % of control | endpoint: mean survival time, dose: 80.0 mg/kg/injection, schedule: Q01DX009 (ip), vehicle: sodium bicarbonate 108 % of control | endpoint: mean survival time, dose: 100.0 mg/kg/injection, schedule: Q01DX001 (ip), vehicle: sodium bicarbonate 96 % of control | endpoint: mean survival time, dose: 200.0 mg/kg/injection, schedule: Q01DX001 (ip), vehicle: sodium bicarbonate 98 % of control | endpoint: mean survival time, dose: 400.0 mg/kg/injection, schedule: Q01DX001 (ip), vehicle: sodium bicarbonate 102 % of control

O=[N+]([O-])c1ccc(/C=C/C2(CCl)OCCO2)cc1
inactive: endpoint: mean survival time, dose: 100.0 mg/kg/injection, schedule: Q01DX001 (ip), vehicle: Klucel (hydroxypropylcellulose) (HPC) 96 % of control | endpoint: mean survival time, dose: 200.0 mg/kg/injection, schedule: Q01DX001 (ip), vehicle: Klucel (hydroxypropylcellulose) (HPC) 92 % of control | endpoint: mean survival time, dose: 400.0 mg/kg/injection, schedule: Q01DX001 (ip), vehicle: Klucel (hydroxypropylcellulose) (HPC) 100 % of control

COc1cccc(CCNC(=O)CC#N)c1
inactive: [1] 97 % of control | [2] 98 % of control | [3] 101 % of control

Nc1cccc(/C=C/c2nc(N)nc(N)c2-c2ccc(Cl)c(Cl)c2)c1
inactive: endpoint: mean survival time, dose: 75.0 mg/kg/injection, schedule: Q01DX001 (ip), vehicle: saline 91 % of control | endpoint: mean survival time, dose: 150.0 mg/kg/injection, schedule: Q01DX001 (ip), vehicle: saline 92 % of control | endpoint: mean survival time, dose: 300.0 mg/kg/injection, schedule: Q01DX001 (ip), vehicle: saline 91 % of control

CCOC(=O)C(Cc1ccccc1C(=O)NC)c1ccccc1 (stereo not drawn)
inactive: [4] 94 % of control | [5] 94 % of control | endpoint: mean survival time, dose: 400.0 mg/kg/injection, schedule: Q01DX009 (ip), vehicle: saline sonified 92 % of control | [6] 100 % of control

C=CC1(C)CCN=C(CCC(C(=O)OCC)C(=O)OCC)O1 (stereo not drawn)
inactive: endpoint: mean survival time, dose: 100.0 mg/kg/injection, schedule: Q01DX001 (ip), vehicle: saline sonified 103 % of control | endpoint: mean survival time, dose: 200.0 mg/kg/injection, schedule: Q01DX001 (ip), vehicle: saline sonified 97 % of control | endpoint: mean survival time, dose: 400.0 mg/kg/injection, schedule: Q01DX001 (ip), vehicle: saline sonified 100 % of control

C[N+]1(C)CCOC(O)(c2ccc(-c3ccccc3)cc2)C1 (stereo not drawn)
inactive: endpoint: mean survival time, dose: 3.13 mg/kg/injection, schedule: Q04DX002 (ip), vehicle: saline 98 % of control | endpoint: mean survival time, dose: 6.25 mg/kg/injection, schedule: Q04DX002 (ip), vehicle: saline 91 % of control

O=C1C=CC(=O)N1c1ccccc1Cl (tested in a mixture with another compound)
inactive: [1] 95 % of control | [2] 96 % of control | [3] 98 % of control

[CH3][Sn]1([CH3])[O]C2C(CO)OC(n3ccc(=O)[nH]c3=O)C2[O]1 (stereo not drawn)
inactive: endpoint: mean survival time, dose: 12.5 mg/kg/injection, schedule: Q01DX005 (ip), vehicle: other 95 % of control | endpoint: mean survival time, dose: 25.0 mg/kg/injection, schedule: Q01DX005 (ip), vehicle: other 101 % of control | endpoint: mean survival time, dose: 50.0 mg/kg/injection, schedule: Q01DX005 (ip), vehicle: other 92 % of control

COC1C(O)CC(OC2CC(Oc3cc4cc5c(c(O)c4c(O)c3C)C(=O)[C@@H](OC3CC(OC4CC(OC6CC(C)(O)C(OC(C)=O)C(C)O6)C(O)C(C)O4)C(O)C(C)O3)[C@H]([C@H](OC)C(=O)[C@@H](O)[C@@H](C)O)C5)OC(C)C2OC(C)=O)OC1C (stereo partly drawn)
inactive: endpoint: mean survival time, dose: 62.5 micrograms/kg/injection, schedule: Q01DX009 (ip), vehicle: saline 120 % of control | endpoint: mean survival time, dose: 250.0 micrograms/kg/injection, schedule: Q01DX009 (ip), vehicle: saline 92 % of control

COC(=O)C12OCC34C(CC5C(C)=C(O)C(=O)CC5(C)C3C(O)C1O)OC(=O)C(OC(=O)C=C(C)C)C24 (stereo not drawn)
inactive: endpoint: mean survival time, dose: 125.0 micrograms/kg/injection, schedule: Q01DX009 (ip), vehicle: saline + alcohol 103 % of control | endpoint: mean survival time, dose: 250.0 micrograms/kg/injection, schedule: Q01DX009 (ip), vehicle: saline + alcohol 100 % of control | endpoint: mean survival time, dose: 500.0 micrograms/kg/injection, schedule: Q01DX009 (ip), vehicle: saline + alcohol 98 % of control | endpoint: mean survival time, dose: 1000.0 micrograms/kg/injection, schedule: Q01DX009 (ip), vehicle: saline + alcohol 104 % of control | endpoint: mean survival time, dose: 2000.0 micrograms/kg/injection, schedule: Q01DX009 (ip), vehicle: saline + alcohol 101 % of control | endpoint: mean survival time, dose: 4000.0 micrograms/kg/injection, schedule: Q01DX009 (ip), vehicle: saline + alcohol 115 % of control

CC(=O)C(C[CH2][Hg][Cl])C(C)=O
inactive: endpoint: mean survival time, dose: 75.0 mg/kg/injection, schedule: Q01DX001 (ip), vehicle: other 92 % of control

CCC1(C)CCC2(C)C(CCC3C(C)(CO)CCCC32O)C1 (stereo not drawn)
inactive: endpoint: mean survival time, dose: 100.0 mg/kg/injection, schedule: Q01DX001 (ip), vehicle: saline with Tween-80 98 % of control | endpoint: mean survival time, dose: 200.0 mg/kg/injection, schedule: Q01DX001 (ip), vehicle: saline with Tween-80 94 % of control | endpoint: mean survival time, dose: 400.0 mg/kg/injection, schedule: Q01DX001 (ip), vehicle: saline with Tween-80 98 % of control

CSc1ncnc2c1ccn2C1OC(CO)C(O)C1O (stereo not drawn)
inactive: endpoint: median survival time, dose: 12.5 mg/kg/injection, schedule: Q01DX005 (ip), vehicle: saline 106 % of control | endpoint: median survival time, dose: 25.0 mg/kg/injection, schedule: Q01DX005 (ip), vehicle: saline 105 % of control | endpoint: median survival time, dose: 50.0 mg/kg/injection, schedule: Q01DX005 (ip), vehicle: saline 102 % of control | endpoint: median survival time, dose: 100.0 mg/kg/injection, schedule: Q01DX005 (ip), vehicle: saline 103 % of control | endpoint: median survival time, dose: 200.0 mg/kg/injection, schedule: Q01DX005 (ip), vehicle: saline 94 % of control

CN(C)c1ccc(C=NCCCN=Cc2ccc(N(C)C)cc2)cc1
inactive: [1] 96 % of control | [4] 95 % of control | [2] 90 % of control | [5] 107 % of control | [3] 93 % of control | [6] 86 % of control

Cc1ccc(N)c(Br)c1
inactive: endpoint: mean survival time, dose: 25.0 mg/kg/injection, schedule: Q04DX003 (ip), vehicle: saline 111 % of control | endpoint: mean survival time, dose: 50.0 mg/kg/injection, schedule: Q04DX003 (ip), vehicle: saline 100 % of control | [4] 92 % of control | endpoint: mean survival time, dose: 100.0 mg/kg/injection, schedule: Q04DX003 (ip), vehicle: saline 98 % of control and 100 % of control | [5] 98 % of control

N=C(N)c1ccc(N=NNc2ccc(C(=N)N)cc2)cc1
inactive: endpoint: median survival time, dose: 12.5 mg/kg/injection, schedule: Q01DX009 (ip), vehicle: saline with Tween-80 117 % of control | endpoint: median survival time, dose: 25.0 mg/kg/injection, schedule: Q01DX009 (ip), vehicle: saline with Tween-80 102 % of control
